US8278037B2, “N-acetylgalactosamine transferases and nucleic acids encoding the same” (National Institute of Advanced Industrial Science and …, priority 2002, dated 2012)

Columns and labels:
Assay type in all cases: biochemical
NGalNAc-T1 [1] = target: T1, NGalNAc-T1 (Homo sapiens, UniProt Q76KP1); assay: Requirements of divalent cations in the activity
T1 sequence (Q76KP1 62-1039): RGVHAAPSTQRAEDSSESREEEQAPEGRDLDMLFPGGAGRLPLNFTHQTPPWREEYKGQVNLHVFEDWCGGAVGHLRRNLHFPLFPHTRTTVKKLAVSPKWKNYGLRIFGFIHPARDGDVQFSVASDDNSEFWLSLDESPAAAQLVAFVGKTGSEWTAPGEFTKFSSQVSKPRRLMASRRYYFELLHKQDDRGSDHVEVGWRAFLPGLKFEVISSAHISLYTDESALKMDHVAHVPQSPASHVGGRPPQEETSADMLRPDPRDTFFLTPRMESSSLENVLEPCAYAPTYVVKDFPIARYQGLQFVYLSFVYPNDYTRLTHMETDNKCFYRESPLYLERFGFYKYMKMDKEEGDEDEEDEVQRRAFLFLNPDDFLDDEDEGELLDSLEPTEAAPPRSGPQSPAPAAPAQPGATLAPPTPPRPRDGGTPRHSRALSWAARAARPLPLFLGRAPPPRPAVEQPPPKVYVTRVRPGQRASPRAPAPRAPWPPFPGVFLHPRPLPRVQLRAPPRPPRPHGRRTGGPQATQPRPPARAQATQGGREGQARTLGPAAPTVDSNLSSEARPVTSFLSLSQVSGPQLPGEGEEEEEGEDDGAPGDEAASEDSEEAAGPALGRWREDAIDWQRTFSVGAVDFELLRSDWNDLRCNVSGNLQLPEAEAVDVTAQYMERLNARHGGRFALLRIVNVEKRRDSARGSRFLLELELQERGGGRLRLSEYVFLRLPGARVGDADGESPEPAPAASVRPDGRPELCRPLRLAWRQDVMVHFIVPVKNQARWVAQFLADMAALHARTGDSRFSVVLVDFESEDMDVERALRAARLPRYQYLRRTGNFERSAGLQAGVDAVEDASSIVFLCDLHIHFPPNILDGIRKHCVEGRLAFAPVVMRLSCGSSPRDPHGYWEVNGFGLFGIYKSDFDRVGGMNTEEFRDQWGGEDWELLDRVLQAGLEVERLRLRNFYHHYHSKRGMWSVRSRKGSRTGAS
From the text: (§1) In addition, the value (263.21 dpm) of MES (pH 6.75) was adopted as a blank value in the case of a non-enzyme. Further, when pH of HEPES buffer was 7.4 for NGalNAc-T1 and 6.75 for NGalNAc-T2, the highest value was shown. […] Hereinafter, MES (pH 6.5) was used in each of experiments.
(§2) Generally, glycosyl transferases require frequently divalent cations. The activity of each enzyme was studied by adding various divalent cations. Consequently, the high values were represented when Mn^2+ in NGalNAc-T1, and Mg^2+, Mn^2+ and Co^2+ in NGalNAc-T2 were added (see Table 5). […] From the above results, it was explained that both enzymes require divalent cations.

NGalNAc-T2 [2] = target: T2, NGalNAc-T2 (Homo sapiens, UniProt Q6L9W6, K411R); assay: Requirements of divalent cations in the activity
From the text: as §1, §2

NGalNAc-T1 [3] = target: T1, NGalNAc-T1; assay: Search for acceptor substrates, each acceptor by itself; settings: acceptor 10 nmol/20 μl by itself
Experimental: (§3) The acceptor substrates were prepared so that each of Gal-α-pNp, Gal-β-oNp, GalNAc-α-Bz, GalNAc-β-pNp, GlcNAc-α-pNp, GlcNAc-β-pNp, Glc-α-pNp, Glc-β-pNp, GlcA-β-pNp, Fuc-α-pNp, Man-α-pNp (thereinbefore, CALBIOCHEM Co.), Xyl-α-pNp, Xyl-β-pNp (thereinbefore, SIGMA Co.) was included in 2.5 nmol/20 μl. Further, the solutions of various donor substrates (UDP-GalNAc, UDP-GlcNAc, UDP-Gal, GDP-Man, UDP-GlcA, UDP-Xyl and GDP-Fuc, thereinbefore, SIGMA Co.) are shown in Table 3.
(§4) All of reaction times were 16 hours. After reaction, non-reactive acceptor substrates with radioactivity were removed with SepPack C18 column (Waters CO.), and radioactivity from donor substrates integrated into acceptor substrates was determined with a liquid scintillation counter.
(§5) Further, in order to investigate acceptors, reactions were performed using each acceptor (10 nmol/20 μl) by itself. As a result, significant radioactivity was detected in the case of GlcNAc-β-pNp (NGalNAc-T1: 256.26 dpm, NGalNAc-T2: 1221.22 dpm). Based on the above results, it was explained that both of NGalNAc-T1 and NGalNAc-T2 are glycosyl transferases capable of transferring GalNAc to GlcNAc-T.

NGalNAc-T2 [4] = target: T2, NGalNAc-T2; assay: as above; settings: acceptor 10 nmol/20 μl by itself
Experimental: as §3, §4, §5

NGalNAc-T1 [5] = target: T1, NGalNAc-T1; assay: Assay for acceptor substrates of glycosyl-transferase activities (GalNAc-T assay, HPLC); settings: Table 6, O-glycan type acceptors 500 μM; GlcNAcβ-Bz = 100
Experimental: (§6) For the reaction of GalNAc-T assay, 50 mM MES buffer (pH 6.5) containing 0.1% triton X-100, 1 mM UDP-GalNAc, 10 mM MnCl2 and 500 μM each acceptor substrate was used. A 10 μl of enzyme solution for 20 μl of each reaction mixture were added and incubated at 37° C. for various periods. After the incubation the mixture was filtrated with Ultrafree-MC column (Millipore, Bedford, Mass.), and 10 μl aliquot was subjected to reversed-phase high performance liquid chromatography (HPLC) on an ODS-80Ts QA column (4.6×250 mm; Tosoh, Tokyo, Japan). A 0.1% TFA/H2O with 12% acetonitrile was used as a running solution. An ultraviolet spectrophotometer (absorbance at 210 nm), SPD-10AVP (Shimazu, Kyoto, Japan) was used for detection of the peaks. When the pyridyl amino-labeled oligosaccharides were utilized as acceptor substrates, 50 nM substrates were added into the reaction mixtures. For the analyses of the products derived from pyridyl amino labeled oligosaccharides, 100 mM acetic acid/triethylamine (pH4.0) was used as a running solution and the products were eluted with a 30-70% gradient of 1% 1-butanol in running solution at a flow rate of 1.0 ml/min at 55° C.
(§7) To investigate the specificity for acceptor substrates, N- and O-glycans containing GlcNAc on their non-reducing termini were utilized.

NGalNAc-T2 [6] = target: T2, NGalNAc-T2; assay: as above; settings: Table 6, O-glycan type acceptors 500 μM; GlcNAcβ-Bz = 100
Experimental: as §6, §7

NGalNAc-T1 [7] = target: T1, NGalNAc-T1; assay: Search for donor substrates, radioactive glycosyltransferase assay; settings: mixed mono-saccharide acceptor substrates, 16 hours
Experimental: (§8) 15 μg of pFLAG-NGalNAc-T1 or pFLAG-NGalNAc-T2 was induced into 2×10^6 of COS-1, cells which were cultured overnight in DMEM (Dulbecco's modified Eagle's medium) including 10% FCS (fetal calf serum), using Lipofectamine 2000 (Invitrogen Co.) as a protocol provided by the same company. A supernatant of 48-72 hours was collected. The supernatant was mixed with NaN3 (0.05%), NaCl (150 mM), CaCl2 (2 mM) and an anti-M1 resin (Sigma Co.) (50 μl), and the mixture was stirred overnight at 4° C. The solution of reaction mixture was centrifuged (3000 rpm, 5 min, 4° C.) to collect a pellet. The pellet was combined with 900 μl of 2 mM CaCl2/TBS and re-centrifuged (2000 rpm, 5 min, 4° C.), after which the pellet was suspended in 200 μl of 1 mM CaCl2/TBS to give a sample for assaying activity (NGalNAc-T1 or NGalNAc-T2 enzyme solution).
(§9) A search for a donor substrate of the enzyme of the present invention was performed on various mono-saccharide acceptor substrates, using […] of enzyme solution and various acceptor substrates.
as §3, §4

NGalNAc-T2 [8] = target: T2, NGalNAc-T2; assay: as above; settings: mixed mono-saccharide acceptor substrates, 16 hours
Experimental: as §8, §9, §3, §4

[9] = divalent cation etc. added, MES (pH 6.5)
[10] = divalent cation etc. added, MES (pH 6.5), blank 263.21 subtracted

[Ca+2].[Cl-].[Cl-] [CaCl2]
Incorporation of radioactivity (A) (NGalNAc-T1 [1]; [9]): 230.78 dpm
(A) − (B) (NGalNAc-T1 [1]; [10]): −32.43 dpm
Incorporation of radioactivity (A) (NGalNAc-T2 [2]; [9]): 217.83 dpm
(A) − (B) (NGalNAc-T2 [2]; [10]): −45.38 dpm

O=S(=O)([O-])[O-].[Cd+2] [CdSO4]
Incorporation of radioactivity (A) (NGalNAc-T1 [1]; [9]): 203.39 dpm
(A) − (B) (NGalNAc-T1 [1]; [10]): −59.82 dpm
Incorporation of radioactivity (A) (NGalNAc-T2 [2]; [9]): 217.92 dpm
(A) − (B) (NGalNAc-T2 [2]; [10]): −45.29 dpm

[Cl-].[Cl-].[Co+2] [CoCl2]
(A) − (B) (NGalNAc-T1 [1]; pH 6.5): −22.30 dpm
Incorporation of radioactivity (A) (NGalNAc-T1 [1]; pH 6.5): 240.91 dpm
enzyme activity on adding divalent cation, in words (NGalNAc-T2 [2]): high values
(A) − (B) (NGalNAc-T2 [2]; pH 6.5): 867.42 dpm
Incorporation of radioactivity (A) (NGalNAc-T2 [2]; pH 6.5): 1130.63 dpm

[Cl][Cu][Cl] [CuCl2]
Incorporation of radioactivity (A) (NGalNAc-T1 [1]; [9]): 278.77 dpm
(A) − (B) (NGalNAc-T1 [1]; [10]): 15.56 dpm
Incorporation of radioactivity (A) (NGalNAc-T2 [2]; [9]): 218.35 dpm
(A) − (B) (NGalNAc-T2 [2]; [10]): −44.86 dpm

O=C(O)CN(CCN(CC(=O)O)CC(=O)O)CC(=O)O [EDTA]
Incorporation of radioactivity (A) (NGalNAc-T1 [1]; [9]): 242.38 dpm
(A) − (B) (NGalNAc-T1 [1]; [10]): −20.83 dpm
Incorporation of radioactivity (A) (NGalNAc-T2 [2]; [9]): 235.28 dpm
(A) − (B) (NGalNAc-T2 [2]; [10]): −27.93 dpm

CC(=O)N[C@H]1[C@H](Oc2ccc([N+](=O)[O-])cc2)O[C@H](CO)[C@@H](O)[C@@H]1O [GlcNAc-β-pNp]
radioactivity detected (NGalNAc-T1 [3]): 256.26 dpm
radioactivity detected (NGalNAc-T2 [4]): 1221.22 dpm

CC(=O)NC1C(OC2C(O)C(CO)OC(Oc3ccc([N+](=O)[O-])cc3)C2NC(C)=O)OC(CO)C(O)C1O (centres unmarked) [GlcNAcβ1-3GalNAcα-pNp]
Relative activity (%) (NGalNAc-T1 [5]): 20.0%
Relative activity (%) (NGalNAc-T2 [6]): 32.3%

CC(=O)N[C@H]1[C@H](OC[C@H]2O[C@H](Oc3ccc([N+](=O)[O-])cc3)[C@H](NC(C)=O)[C@@H](O[C@@H]3O[C@H](CO)[C@H](O)[C@H](O)[C@H]3O)[C@H]2O)O[C@H](CO)[C@@H](O)[C@@H]1O [GlcNAcβ1-6(Galβ1-3)GalNAcα-pNp]
Relative activity (%) (NGalNAc-T1 [5]): 15.2%
Relative activity (%) (NGalNAc-T2 [6]): 11.4%

CC(=O)N[C@H]1[C@@H](Oc2ccc([N+](=O)[O-])cc2)O[C@H](CO[C@@H]2O[C@H](CO)[C@@H](O)[C@H](O)[C@H]2NC(C)=O)[C@H](O)[C@@H]1O [GlcNAcβ1-6GalNAcα-pNp]
Relative activity (%) (NGalNAc-T1 [5]): 190.7%
Relative activity (%) (NGalNAc-T2 [6]): 220.4%

CC(=O)N[C@H]1[C@H](OCc2ccccc2)O[C@H](CO)[C@@H](O)[C@@H]1O [GlcNAcβ-Bz]
Relative activity (%) (NGalNAc-T1 [5]): 100%
Relative activity (%) (NGalNAc-T2 [6]): 100%

[Cl-].[Cl-].[Mg+2] [MgCl2]
Incorporation of radioactivity (A) (NGalNAc-T1 [1]; [9]): 256.36 dpm
(A) − (B) (NGalNAc-T1 [1]; [10]): −6.85 dpm
enzyme activity on adding divalent cation, in words (NGalNAc-T2 [2]): high values
Incorporation of radioactivity (A) (NGalNAc-T2 [2]; [9]): 3124.16 dpm
(A) − (B) (NGalNAc-T2 [2]; [10]): 2860.95 dpm

[Cl][Mn][Cl] [MnCl2]
enzyme activity on adding divalent cation, in words (NGalNAc-T1 [1]): high values
Incorporation of radioactivity (A) (NGalNAc-T1 [1]; [9]): 519.47 dpm
(A) − (B) (NGalNAc-T1 [1]; [10]): 256.26 dpm
enzyme activity on adding divalent cation, in words (NGalNAc-T2 [2]): high values
Incorporation of radioactivity (A) (NGalNAc-T2 [2]; [9]): 1484.43 dpm
(A) − (B) (NGalNAc-T2 [2]; [10]): 1221.22 dpm

CC(=O)N[C@H]1[C@@H](OP(=O)(O)OP(=O)(O)OC[C@H]2O[C@@H](n3ccc(=O)[nH]c3=O)[C@H](O)[C@@H]2O)O[C@H](CO)[C@H](O)[C@@H]1O [UDP-GalNAc, UDP-N-acetyl-D-galactosamine]
activity with donor substrate (radioactivity integrated into acceptor substrates) (NGalNAc-T1 [7]): highest activity
activity with donor substrate (radioactivity integrated into acceptor substrates) (NGalNAc-T2 [8]): highest activity

O=C(O)[C@H]1O[C@H](OP(=O)(O)OP(=O)(O)OC[C@H]2O[C@@H](n3ccc(=O)[nH]c3=O)[C@H](O)[C@@H]2O)[C@H](O)[C@@H](O)[C@@H]1O [UDP-GlcA]
activity with donor substrate (radioactivity integrated into acceptor substrates) (NGalNAc-T1 [7]): little background
activity with donor substrate (radioactivity integrated into acceptor substrates) (NGalNAc-T2 [8]): little background

[Cl-].[Cl-].[Zn+2] [ZnCl2]
Incorporation of radioactivity (A) (NGalNAc-T1 [1]; [9]): 210.29 dpm
(A) − (B) (NGalNAc-T1 [1]; [10]): −52.92 dpm
Incorporation of radioactivity (A) (NGalNAc-T2 [2]; [9]): 187.59 dpm
(A) − (B) (NGalNAc-T2 [2]; [10]): −75.62 dpm
